Where a name gives a salt, the structure may show the parent alone.
System: HCT116
Conditions: 72 h
Method in brief: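 After seeding at 250 cells per well in 1536-well plates, HCT116 cells were given 5 h to attach. CellTiter-Glo luminescence, scaled to 0% for vehicle and -100% for positive control, was pattern-corrected. Fitting with a four-parameter Hill model produced IC50 and maximal efficacy.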

Row | Compound | IC50 cell viability (ICRF193 0 nM) | IC50 cell viability (ICRF193 200 nM)
1 | COc1ccc(CCN(C)CCCC(C#N)(c2cc(OC)c(OC)c(OC)c2)C(C)C)cc1OC (stereo not given) [Gallopamil hydrochloride] | > 45.8 µM | > 45.8 µM
2 | NC(=O)OCCCc1ccccc1 [Phenprobamate] | > 45.8 µM | > 45.8 µM
3 | O=C(OCc1ccccc1)c1ccccc1 [Benzyl benzoate] | > 45.8 µM | > 45.8 µM
4 | CC(=O)Oc1c(C)c(C)c2c(c1C)CCC(C)(CCCC(C)CCCC(C)CCCC(C)C)O2 (racemic) [dl-alpha-Tocopheryl acetate] | > 45.8 µM | > 45.8 µM
5 | COC(=O)c1cccnc1 [Methyl nicotinate] | > 45.8 µM | > 45.8 µM
6 | C=CC[C@]1(O)CC[C@H]2[C@@H]3CCC4=CC(=O)CCC4=C3C=C[C@@]21C [Altrenogest] | > 45.8 µM | > 45.8 µM
7 | O=C(OCC1(COC(=O)c2cccnc2)CCCC(COC(=O)c2cccnc2)(COC(=O)c2cccnc2)C1O)c1cccnc1 [Nicomolol] | > 45.8 µM | > 45.8 µM
8 | CC(C)C[C@H](NC(=O)[C@@H](O)[C@H](N)Cc1ccccc1)C(=O)O [Ubenimex] | > 45.8 µM | > 45.8 µM
9 | CN1CCN(C2=Nc3ccccc3Cc3ccccc32)CC1 [Perlapine] | > 45.8 µM | > 45.8 µM
10 | C[N+]1(C)CCCC(OC(=O)C(O)(c2ccccc2)c2ccccc2)C1 (stereo not given) [Mepenzolate bromide] | > 45.8 µM | > 45.8 µM
11 | C=CC(N)CCC(=O)O (stereo not given) [Vigabatrin] | > 45.8 µM | > 45.8 µM
12 | O=C(CCOCCOCCOCCOCCC(=O)Nc1c(I)cc(I)c(C(=O)O)c1I)Nc1c(I)cc(I)c(C(=O)O)c1I [Iodoxamic Acid] | > 45.8 µM | > 45.8 µM
13 | C=CCN1C[C@H](C(=O)N(CCCN(C)C)C(=O)NCC)C[C@@H]2c3cccc4[nH]cc(c34)C[C@H]21 [Cabergoline] | > 45.8 µM | > 45.8 µM
14 | CNC[C@H](O)[C@@H](O)[C@H](O)[C@H](O)CO [Meglumine] | > 45.8 µM | > 45.8 µM
15 | O=[N+]([O-])O[C@H]1CO[C@H]2[C@@H]1OC[C@H]2O[N+](=O)[O-] [Isosorbide dinitrate] | > 45.8 µM | > 45.8 µM
16 | N#Cc1ccc2c(c1)N(CCCN1CCC(O)CC1)c1ccccc1S2 [PERICIAZINE] | > 45.8 µM | > 45.8 µM
17 | C(=C\c1ccccc1)/CN1CCN(C(c2ccccc2)c2ccccc2)CC1 [Cinnarizine] | > 45.8 µM | > 45.8 µM
18 | CS(=O)(=O)Nc1ccc([N+](=O)[O-])cc1Oc1ccccc1 [Nimesulide] | > 45.8 µM | > 45.8 µM
19 | CC(=O)OCC[N+](C)(C)C [Acetylcholine chloride] | > 45.8 µM | > 45.8 µM
20 | CC[C@]1(O)CC[C@H]2[C@@H]3CCC4=CCCC[C@@H]4[C@H]3CC[C@@]21C [Ethylestrenol] | > 45.8 µM | > 45.8 µM
21 | CC1(C)C[C@@H]1C(=O)N/C(=C\CCCCSC[C@H](N)C(=O)O)C(=O)O [Cilastatin] | > 45.8 µM | > 45.8 µM
22 | CC[N+](C)(CC)CCOC(=O)C(O)(c1ccccc1)C1CCCCC1 (stereo not given) [Oxyphenonium bromide] | > 45.8 µM | > 45.8 µM
23 | Cl/C=C\C[N+]12CN3CN(CN(C3)C1)C2 | > 45.8 µM | > 45.8 µM
24 | CC1C=CC=CCCC=CC=CC=CC=CC(OC2OC(C)C(O)C(N)C2O)CC2OC(O)(CC(O)C(O)CCC(O)CC(O)CC(O)CC(=O)OC(C)C(C)C1O)CC(O)C2C(=O)O (stereo not given) [NYSTATIN] | > 45.8 µM | > 45.8 µM
25 | Clc1ccc(CCCOCCCN2CCCCC2)cc1 [Pitolisant (hydrochloride)] | > 45.8 µM | > 45.8 µM
26 | O=C(NCNC(=O)NC1C(=O)NC(=O)N1CO)NC1C(=O)NC(=O)N1CO (stereo not given) [Imidazolidinyl urea] | > 45.8 µM | > 45.8 µM

Further lines, results first:

Row | IC50 cell viability (ICRF193 0 nM) | IC50 cell viability (ICRF193 200 nM) | Compound
27 | > 45.8 µM | > 45.8 µM | CC[C@@H]([C@H](C)O)n1ncn(-c2ccc(N3CCN(c4ccc(OC[C@@H]5CO[C@@](Cn6cncn6)(c6ccc(F)cc6F)C5)cc4)CC3)cc2)c1=O [Posaconazole]
28 | > 45.8 µM | > 45.8 µM | C[C@@H]1NC(=O)[C@@H](N)CNC(=O)[C@H]([C@H]2CCNC(N)=N2)NC(=O)/C(=C/NC(N)=O)NC(=O)[C@H](CNC(=O)C[C@@H](N)CCCN)NC1=O [Capreomycin IB]
29 | > 45.8 µM | > 45.8 µM | CC1(C)S[C@@H]2[C@H](NC(=O)[C@H](N)c3ccccc3)C(=O)N2[C@H]1C(=O)OCOC(=O)[C@@H]1N2C(=O)C[C@H]2S(=O)(=O)C1(C)C [Sultamicillin tosylate]
30 | > 45.8 µM | > 45.8 µM | NC(=O)Cc1cccc(C(=O)c2ccccc2)c1N [Nepafenac]
31 | > 45.8 µM | > 45.8 µM | CC(=O)CC(c1ccc([N+](=O)[O-])cc1)c1c(O)c2ccccc2oc1=O (stereo not given) [Acenocoumarol]
32 | > 45.8 µM | > 45.8 µM | Cc1[nH]cnc1C[C@H]1CCc2c(C)c3ccccc3n2C1=O [Fabesetron]
33 | > 45.8 µM | > 45.8 µM | CC1CNc2c(cccc2S(=O)(=O)N[C@@H](CCCNC(=N)N)C(=O)N2CC[C@@H](C)C[C@@H]2C(=O)O)C1 (stereo not given in full) [Argatroban]
34 | > 45.8 µM | > 45.8 µM | NS(=O)(=O)c1cc(C(=O)O)c(NCc2ccco2)cc1Cl [Furosemide]
35 | > 45.8 µM | > 45.8 µM | O=S(=O)(O)c1ccccc1 [Benzene sulfonic acid]
36 | > 45.8 µM | > 45.8 µM | CC(C)(C)NCC(O)COc1cccc2c1CCC(=O)N2 (stereo not given) [Carteolol hydrochloride]
37 | > 45.8 µM | > 45.8 µM | C[C@H]1O[C@@H](n2cc(F)c(=O)[nH]c2=O)[C@H](O)[C@@H]1O [Doxifluridine]
38 | > 45.8 µM | > 45.8 µM | CC(C)(C)c1ccc(C(O)CCCN2CCC(C(O)(c3ccccc3)c3ccccc3)CC2)cc1 (stereo not given) [Terfenadine]
39 | > 45.8 µM | > 45.8 µM | O=C(O)c1cc(-c2ccc(F)cc2F)ccc1O [Diflunisal]
40 | > 45.8 µM | > 45.8 µM | CCN1C(=O)NC(c2ccccc2)C1=O (stereo not given) [Ethotoin]
41 | > 45.8 µM | > 45.8 µM | CO[C@H]1C[C@@H]2CC[C@@H](C)[C@@](O)(O2)C(=O)C(=O)N2CCCC[C@H]2C(=O)O[C@H]([C@H](C)C[C@@H]2CC[C@@H](OCCO)[C@H](OC)C2)CC(=O)[C@H](C)/C=C(\C)[C@@H](O)[C@@H](OC)C(=O)[C@H](C)C[C@H](C)/C=C/C=C/C=C/1C [Everolimus]
42 | > 45.8 µM | > 45.8 µM | CCC(=O)c1ccc(O)cc1 [Paroxypropione]
43 | > 45.8 µM | > 45.8 µM | CCOc1cc(OCC)c(C(=O)CCC(=O)O)cc1OCC [Trepibutone]

Row | IC50 cell viability (ICRF193 0 nM) | IC50 cell viability (ICRF193 200 nM) | Compound
44 | > 45.8 µM | > 45.8 µM | O=C(O)c1cc(O)c2c3nc4ccccc4oc-3cc(=O)c2n1 [Pirenoxine Sodium]
45 | > 45.8 µM | > 45.8 µM | COc1cc(/C=C/C(=O)N2CCN(CC(=O)N3CCCC3)CC2)cc(OC)c1OC [Cinepazide Maleate]
46 | > 45.8 µM | > 45.8 µM | Cc1onc(-c2ccccc2Cl)c1C(=O)N[C@@H]1C(=O)N2[C@@H]1SC(C)(C)[C@@H]2C(=O)O [Cloxacillin sodium]
47 | > 45.8 µM | > 45.8 µM | O=C(O)/C=C/c1ccc(Cn2ccnc2)cc1 [Ozagrel hydrochloride]
48 | > 45.8 µM | > 45.8 µM | O=C(O[C@H]1CN2CCC1CC2)N1CCc2ccccc2[C@@H]1c1ccccc1 [Solifenacin (hydrochloride)]
49 | > 45.8 µM | > 45.8 µM | C[C@H]1O[C@H](O[C@H]2[C@H](O)[C@@H](O)[C@@H](O[C@H]3[C@H](O)[C@@H](O)C(O)O[C@@H]3CO)O[C@@H]2CO)[C@H](O)[C@@H](O)[C@@H]1N[C@H]1C=C(CO)[C@@H](O)[C@H](O)[C@H]1O (stereo not given in full) [Acarbose]
50 | > 45.8 µM | > 45.8 µM | NC(=O)N/N=C/c1ccc([N+](=O)[O-])o1 [Nitrofurazone]
51 | > 45.8 µM | > 45.8 µM | O=C(Oc1ccccc1C(=O)O)c1ccccc1O [Salsalate]
52 | > 45.8 µM | > 45.8 µM | Cc1ccc(C(=O)c2ccc(CC(=O)O)n2C)cc1 [Tolmetin sodium dihydrate]
53 | > 45.8 µM | > 45.8 µM | CC[C@H]1OC(=O)[C@H](C)[C@@H](O[C@H]2C[C@@](C)(OC)[C@@H](O)[C@H](C)O2)[C@H](C)[C@@H](O[C@@H]2O[C@H](C)C[C@H](N(C)C)[C@H]2O)[C@](C)(O)C[C@@H](C)/C(=N\OCOCCOC)[C@H](C)[C@@H](O)[C@]1(C)O [Roxithromycin]
54 | > 45.8 µM | > 45.8 µM | CCOC(=O)[C@H](CCc1ccccc1)N[C@@H](C)C(=O)N1CCC[C@H]1C(=O)O [Enalapril maleate]
55 | > 45.8 µM | > 45.8 µM | CC/C(=C(/CC)c1ccc(OP(=O)(O)O)cc1)c1ccc(OP(=O)(O)O)cc1 [Fosfestrol tetrasodium]
56 | > 45.8 µM | > 45.8 µM | Cc1ccc(S(=O)(=O)NC(=O)NN2CCCCCC2)cc1 [Tolazamide]
57 | > 45.8 µM | > 45.8 µM | CO/N=C(\C(=O)N[C@@H]1C(=O)N2C(C(=O)O)=C(COC(C)=O)CS[C@H]12)c1csc(N)n1 [Cefotaxime sodium salt]
58 | > 45.8 µM | > 45.8 µM | CCC(Cc1c(I)cc(I)c(N)c1I)C(=O)O (stereo not given) [Iopanoic acid]
59 | > 45.8 µM | > 45.8 µM | O=S(O)CNc1ccc(S(=O)(=O)c2ccc(NCS(=O)O)cc2)cc1 [Adesulfone sodium]
60 | > 45.8 µM | > 45.8 µM | CC(C)C(=O)Nc1cccc(C2CN3CCSC3=N2)c1 (stereo not given) [Butamisole]

From the supplement of paper PMC12137928
